The test system of the assay is mono-methyl arginine in RKO cells. The experiment in a line: RKO Methylation Assay (In Cell Western). The conditions noted are these: Homo sapiens, 72 hours, percent activation, read-out: RGG ICW EC30. In kind it is cell-based. An excerpt: RKO adherent cells were purchased from ATCC (American Type Culture Collection), Manassas, Va., USA. DMEM/Glutamax medium, penicillin-streptomycin, heat inactivated fetal bovine serum, 0.05% trypsin and D-PBS were purchased from Life Technologies, Grand Island, N.Y., USA. Odyssey blocking buffer, 800CW goat anti-rabbit IgG (H+L) antibody, and Licor Odyssey infrared scanner were purchased from Licor Biosciences, Lincoln, Nebr., USA. Mono-methyl arginine antibody was purchased from Cell Signaling Technology, Danvers, Mass., USA. Methanol was purchased from VWR, Franklin, Mass., USA. 10% Tween 20 was purchased from KPL, Inc., Gaithersburg, Md., USA. DRAQ5 was purchased from Biostatus Limited, Leicestershire, UK.
RKO adherent cells were maintained in growth medium (DMEM/Glutamax medium supplemented with 10% v/v heat inactivated fetal bovine serum and 100 units/mL penicillin-streptomycin) and cultured at 37° C. under 5% CO2.
Cell Treatment, in Cell Western (ICW) for Detection of Mono-Methyl Arginine and DNA Content.
RKO cells were seeded in assay medium at a concentration of 20,000 cells per mL to a poly-D-lysine coated 384 well culture plate (BD Biosciences 356697) with 50 μL per well. Compound (100 nL) from a 96-well source plate was added directly to 384 well cell plate. Plates were incubated at 37° C., 5% CO2 for 72 hours. After three days of incubation, plates were brought to room temperature outside of the incubator for ten minutes and blotted on paper towels to remove cell media. 50 μL of ice cold 100% methanol was added directly to each well and incubated for 30 min at room temperature. After 30 min, plates were transferred to a Biotek EL406 plate washer and washed 2 times with 100 μL per well of wash buffer (1×PBS). Next 60 μL per well of Odyssey blocking buffer (Odyssey Buffer with 0.1% Tween 20 (v/v)) were added to each plate and incubated 1 hour at room temperature. Blocking buffer was removed and 20 μL per well of primary antibody was added (mono-methyl arginine diluted 1:200 in Odyssey buffer with 0.1% Tween 20 (v/v)) and plates were incubated overnight (16 hours) at 4° C. Plates were washed 5 times with 100 μL per well of wash buffer. Next 20 μL per well of secondary antibody was added (1:200 800CW goat anti-rabbit IgG (H+L) antibody, 1:1000 DRAQ5 (Biostatus limited) in Odyssey buffer with 0.1% Tween 20 (v/v)) and incubated for 1 hour at room temperature. The plates were washed 5 times with 100 μL per well wash buffer then 2 times with 100 μL per well of water. Plates were allowed to dry at room temperature then imaged on the Licor Odyssey machine which measures integrated intensity at 700 nm and 800 nm wavelengths. Both 700 and 800 channels were scanned.
First, the ratio for each well was determined by:
Each plate included fourteen control wells of DMSO only treatment (minimum activation) as well as fourteen control wells for maximum activation treated with 20 μM of a reference compound. The average of the ratio values for each control type was calculated and used to determine the percent activation for each test well in the plate. Reference compound was serially diluted three-fold in DMSO for a total of nine test concentrations, beginning at 20 μM. Percent activation was determined and EC30 curves were generated using triplicate wells per concentration of compound.

The term EC30 denotes the point of the concentration-response curve where the effect stands at 30%. `CN(CCN)Cc1n[nH]c2cccc(OCc3ccccc3)c12` [Compound 1]: the EC30 was not above 3000 nM.

Values taken from patent publication US9943504B2, “Arginine methyltransferase inhibitors and uses thereof” (Epizyme, Inc., priority 2013, dated 2018).
